Values belong to the molecule of their own block, whether it stands above or below them. Activity calls are given as the source filed them. No cut-off for these calls is given here.
What was measured:
[1] = Drug uptake in human HepG2 cells at 10 uM after 15 mins by confocal scanning microscopic analysis; assay type: ADME, cell-based; conditions: hepg2, 0.25 h
[2] = Drug uptake in human HeLa cells at 10 uM after 15 mins by confocal scanning microscopic analysis; assay type: ADME, cell-based; conditions: 0.25 h
[3] = Drug uptake in human HepG2 cells pretreated with galactose for 30 mins followed by compound addition and measured after 15 mins by confocal scanning microscopic analysis; assay type: ADME, cell-based; conditions: hepg2, 0.75 h, time 45 min
[4] = Drug distribution in Kunming mouse liver at 6 mg/kg, iv measured after 3 hrs by confocal scanning microscopic analysis; assay type: ADME, organism-based; conditions: in vivo
[5] = Drug uptake in human A549 cells at 10 uM after 15 mins by confocal scanning microscopic analysis; assay type: ADME, cell-based; conditions: a549, 0.25 h
[6] = Drug uptake in human SGC-7901 cells at 10 uM after 15 mins by confocal scanning microscopic analysis; assay type: ADME, cell-based; conditions: sgc-7901, 0.25 h
[7] = Drug distribution in Kunming mouse liver at 8.4 mg/kg, iv measured after 3 hrs by confocal scanning microscopic analysis; assay type: ADME, organism-based; conditions: in vivo
[8] = test system: HepG2; test: Cytotoxicity against human HepG2 cells at 10 to 80 uM after 24 hrs; assay type: cell-based; conditions: hepg2, 24 h, dose 10-80 µM
[9] = test system: HepG2; test: Induction of apoptosis in human HepG2 cells assessed as upregulation of caspase 3 protein expression at 2 to 8 uM after 24 hrs; assay type: functional, cell-based; conditions: dose 2-8 µM
[10] = test system: HepG2; test: Induction of morphological changes in human HepG2 cells assessed as chromatin condensation incubated for 24 hrs by Hoechst 33342 staining based analysis; assay type: functional, cell-based
[11] = test system: HepG2; test: Cell cycle arrest in human HepG2 cells assessed as accumulation at S phase at 4 uM measured after 24 hrs by propidium iodide staining based flow cytometric analysis (reference value: 37.10%); assay type: functional
[12] = test system: HepG2; test: Cell cycle arrest in human HepG2 cells assessed as accumulation at G2/M phase at 2 uM measured after 24 hrs by propidium iodide staining based flow cytometric analysis (reference value: 7.63%); assay type: functional
[13] = test system: HepG2; test: Cell cycle arrest in human HepG2 cells assessed as accumulation at G2/M phase at 4 uM measured after 24 hrs by propidium iodide staining based flow cytometric analysis (reference value: 7.63%); assay type: functional
[14] = Drug distribution in Kunming mouse lung at 3.5 mg/kg, iv measured after 3 hrs by confocal scanning microscopic analysis; assay type: ADME, organism-based; conditions: in vivo
[15] = test system: HepG2; test: Induction of apoptosis in human HepG2 cells assessed as viable cells at 9 uM measured after 24 hrs by annexinV-FITC/propidium iodide double staining based flow cytometric analysis (reference value: 93.6 %); assay type: functional; conditions: read-out: Activity
[16] = test system: HepG2; test: Induction of apoptosis in human HepG2 cells assessed as early apoptotic cells at 9 uM measured after 24 hrs by annexinV-FITC/propidium iodide double staining based flow cytometric analysis (reference value: 6.3 %); assay type: functional
[17] = test system: HepG2; test: Induction of apoptosis in human HepG2 cells assessed as necrotic cells at 6 uM measured after 24 hrs by annexinV-FITC/propidium iodide double staining based flow cytometric analysis (reference value: 0.0 %); assay type: functional
[18] = test system: HepG2; test: Cell cycle arrest in human HepG2 cells assessed as accumulation at S phase at 8 uM measured after 24 hrs by propidium iodide staining based flow cytometric analysis (reference value: 37.10%); assay type: functional
[19] = test system: HepG2; test: Induction of apoptosis in human HepG2 cells assessed as late apoptotic cells at 6 uM measured after 24 hrs by annexinV-FITC/propidium iodide double staining based flow cytometric analysis (reference value: 0.1 %); assay type: functional
[20] = test system: HepG2; test: Cytotoxicity against human HepG2 cells at 2 to 10 uM after 48 hrs by MTT assay; assay type: functional, cell-based; conditions: HepG2, 48 h
[21] = test system: HepG2; test: Cell cycle arrest in human HepG2 cells assessed as accumulation at G2/M phase at 8 uM measured after 24 hrs by propidium iodide staining based flow cytometric analysis (reference value: 7.63%); assay type: functional
[22] = test system: HepG2; test: Induction of apoptosis in human HepG2 cells assessed as early apoptotic cells at 12 uM measured after 24 hrs by annexinV-FITC/propidium iodide double staining based flow cytometric analysis (reference value: 6.3 %); assay type: functional
[23] = test system: HepG2; test: Inhibition of cell migration in human HepG2 cells after 24 hrs by crystal violet staining based inverted microscopic analysis; assay type: functional
[24] = test system: HepG2; test: Inhibition of colony formation in human HepG2 cells after 7 days by crystal violet staining based inverted microscopic analysis; assay type: functional, cell-based; conditions: time 7.0 day
[25] = test system: HepG2; test: Induction of apoptosis in human HepG2 cells assessed as late apoptotic cells at 12 uM measured after 24 hrs by annexinV-FITC/propidium iodide double staining based flow cytometric analysis (reference value: 0.1 %); assay type: functional
[26] = test system: HepG2; test: Cell cycle arrest in human HepG2 cells assessed as accumulation at S phase at 2 uM measured after 24 hrs by propidium iodide staining based flow cytometric analysis (reference value: 37.10%); assay type: functional
[27] = test system: HepG2; test: Induction of apoptosis in human HepG2 cells assessed as viable cells at 6 uM measured after 24 hrs by annexinV-FITC/propidium iodide double staining based flow cytometric analysis (reference value: 93.6 %); assay type: functional; conditions: read-out: Activity
[28] = test system: HepG2; test: Induction of apoptosis in human HepG2 cells assessed as necrotic cells at 12 uM measured after 24 hrs by annexinV-FITC/propidium iodide double staining based flow cytometric analysis (reference value: 0.0 %); assay type: functional
[29] = test system: HepG2; test: Cell cycle arrest in human HepG2 cells assessed as accumulation at G0/G1 phase at 4 uM measured after 24 hrs by propidium iodide staining based flow cytometric analysis (reference value: 55.27%); assay type: functional
[30] = test system: HepG2; test: Cell cycle arrest in human HepG2 cells assessed as accumulation at G0/G1 phase at 2 uM measured after 24 hrs by propidium iodide staining based flow cytometric analysis (reference value: 55.27%); assay type: functional
[31] = Toxicity in Kunming mouse implanted with mouse H22 cells assessed as change in body weight at 3.5 mg/kg after 7 days; assay type: organism-based; conditions: in vivo, 168 h, time 7 day
[32] = Drug distribution in Kunming mouse kidney at 3.5 mg/kg, iv measured after 3 hrs by confocal scanning microscopic analysis; assay type: ADME, organism-based; conditions: in vivo
[33] = Drug distribution in Kunming mouse spleen at 3.5 mg/kg, iv measured after 3 hrs by confocal scanning microscopic analysis; assay type: ADME, organism-based; conditions: in vivo
[34] = Toxicity in Kunming mouse implanted with mouse H22 cells assessed as change in organ weight at 3.5 mg/kg after 7 days; assay type: organism-based; conditions: in vivo, 168 h, time 7 day
[35] = test system: HepG2; test: Induction of apoptosis in human HepG2 cells assessed as late apoptotic cells at 9 uM measured after 24 hrs by annexinV-FITC/propidium iodide double staining based flow cytometric analysis (reference value: 0.1 %); assay type: functional
[36] = test system: HepG2; test: Induction of apoptosis in human HepG2 cells assessed as necrotic cells at 9 uM measured after 24 hrs by annexinV-FITC/propidium iodide double staining based flow cytometric analysis (reference value: 0.0 %); assay type: functional
[37] = test system: HepG2; test: Cell cycle arrest in human HepG2 cells assessed as accumulation at G0/G1 phase at 8 uM measured after 24 hrs by propidium iodide staining based flow cytometric analysis (reference value: 55.27%); assay type: functional
[38] = test system: HepG2; test: Induction of apoptosis in human HepG2 cells assessed as viable cells at 12 uM measured after 24 hrs by annexinV-FITC/propidium iodide double staining based flow cytometric analysis (reference value: 93.6 %); assay type: functional; conditions: read-out: Activity
[39] = test system: HepG2; test: Induction of apoptosis in human HepG2 cells assessed as early apoptotic cells at 6 uM measured after 24 hrs by annexinV-FITC/propidium iodide double staining based flow cytometric analysis (reference value: 6.3 %); assay type: functional
[40] = Drug distribution in Kunming mouse heart at 3.5 mg/kg, iv measured after 3 hrs by confocal scanning microscopic analysis; assay type: ADME, organism-based; conditions: in vivo
[41] = test system: H22; test: Antitumor activity against mouse H22 cells implanted in Kunming mouse assessed as tumor growth inhibition at 3.5 mg/kg measured on day 7; assay type: functional; set-up: scale not given: the % may be the effect or the level left; conditions: time 7 day
[42] = Drug distribution in Kunming mouse liver at 3.5 mg/kg, iv measured after 3 hrs by confocal scanning microscopic analysis; assay type: ADME, organism-based; conditions: in vivo
[43] = test system: HepG2; test: Induction of morphological changes in human HepG2 cells assessed as chromatin fragmentation incubated for 24 hrs by Hoechst 33342 staining based analysis; assay type: functional, cell-based

Drug uptake [1]: Active
Drug uptake [2]: Active
Drug uptake [3]: Not Active
Drug uptake [4]: Active
Drug uptake [5]: Active
Drug uptake [6]: Active
Compound: C=C[C@]1(C)CC[C@@H](C(=C)Cn2cc(CN3C(=O)c4cccc5c(N6CCN(C(=O)OCCSSCCOCc7cn([C@@H]8O[C@H](CO)[C@H](O)[C@H](O)[C@H]8O)nn7)CC6)ccc(c45)C3=O)nn2)C[C@H]1C(=C)C

Drug uptake [7]: Active
Drug uptake [1]: Active
Drug uptake [2]: Active
Drug uptake [3]: Not Active
Drug uptake [5]: Active
Drug uptake [6]: Active
Compound: C=C[C@]1(C)CC[C@@H](C(=C)Cn2cc(CN3C(=O)c4cccc5c(N6CCN(C(=O)OCCSSCCOCC(=O)NC(COCc7cn([C@@H]8O[C@H](CO)[C@H](O)[C@H](O)[C@H]8O)nn7)COCc7cn([C@@H]8O[C@H](CO)[C@H](O)[C@H](O)[C@H]8O)nn7)CC6)ccc(c45)C3=O)nn2)C[C@H]1C(=C)C
Activity [8]: Non-Toxic

Drug uptake [14]: Not Active
Drug uptake [1]: Not Active
Drug uptake [2]: Not Active
Drug uptake [5]: Not Active
Drug uptake [6]: Not Active
Drug uptake [32]: Not Active
Drug uptake [33]: Not Active
Drug uptake [40]: Not Active
Drug uptake [42]: Not Active
Compound: C=C[C@]1(C)CC[C@@H](C(=C)Cn2cc(CN3C(=O)c4cccc5c(N6CCNCC6)ccc(c45)C3=O)nn2)C[C@H]1C(=C)C
Activity [9]: Active
Activity [10]: Active
Activity [11]: 30.47%
Activity [12]: 6.61%
Activity [13]: 5.29%
viability at 9 µM [15]: 9.7%
Activity [16]: 89.4%
Activity [17]: 0%
Activity [18]: 21.81%
Activity [19]: 1.9%
IC50 [20]: 6.11 µM
Activity [21]: 67.4%
Activity [22]: 94.9%
inhibition [23]: Dose-Dependent Effect
inhibition [24]: Dose-Dependent Effect
Activity [25]: 0.3%
Activity [26]: 29.93%
viability at 6 µM [27]: 51.5%
Activity [28]: 0%
Activity [29]: 64.24%
Activity [30]: 63.46%
Activity [31]: Non-Toxic
Activity [34]: Non-Toxic
Activity [35]: 0.9%
Activity [36]: 0%
Activity [37]: 71.44%
viability at 12 µM [38]: 4.7%
Activity [39]: 46.5%
Activity [41]: 33.65%
Activity [43]: Active

Source: ChEMBL document CHEMBL5029167, “Development of Asialoglycoprotein-Mediated Hepatocyte-Targeting Antitumor Prodrugs Triggered by Glutathione” (J Med Chem, 2021)
